From US9221766B2, “Compounds as diacylglycerol acyltransferase inhibitors” (GlaxoSmithKline LLC, priority 2012, dated 2015)

Target: T1, Human DGAT1 (Homo sapiens, UniProt O75907)
T1 construct: made in house; host or cells: Sf9 insect cells (baculovirus); microsomes used as enzyme
T1 sequence (O75907 1-488): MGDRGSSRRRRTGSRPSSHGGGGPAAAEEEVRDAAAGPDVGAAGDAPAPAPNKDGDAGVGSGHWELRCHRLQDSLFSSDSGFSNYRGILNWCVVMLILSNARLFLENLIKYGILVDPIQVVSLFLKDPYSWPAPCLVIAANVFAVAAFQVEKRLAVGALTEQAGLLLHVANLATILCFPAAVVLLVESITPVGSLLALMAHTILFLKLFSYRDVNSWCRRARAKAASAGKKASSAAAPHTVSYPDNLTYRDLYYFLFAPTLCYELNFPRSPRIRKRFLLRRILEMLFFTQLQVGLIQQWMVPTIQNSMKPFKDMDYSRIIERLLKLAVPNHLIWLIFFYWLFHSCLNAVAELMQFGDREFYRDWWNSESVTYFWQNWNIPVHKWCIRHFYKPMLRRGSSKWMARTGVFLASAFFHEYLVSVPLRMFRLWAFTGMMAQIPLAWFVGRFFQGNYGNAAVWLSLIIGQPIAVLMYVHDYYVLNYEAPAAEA
Experiment: human DGAT1 lipid extraction (LE) assay, inhibition of triacylglycerol product formation
Type: biochemical
Conditions: human DGAT1 microsomes from Sf9 cells, read-out: hDGAT LE IC50
Method: Human DGAT1 was expressed in Sf9 insect cells using a baculovirus expression system. Microsomes were prepared and used as enzyme for in vitro inhibition testing in either of two formats measuring production of coenzyme A or tridecanoylglycerol product, respectively. All steps were performed at 21-23° C. All data for DGAT1 inhibition by test compounds were collected under conditions where product formation was linear with reaction time.
For inhibition of triacylglycerol product formation, 11 uL reactions were run in white Polyplate-384 (PerkinElmer6007300) starting with a 30 minute pre-reaction incubation of 5 uL of 2.2× enzyme and 1 uL of 100% DMSO containing test compound or control compound, {4-[4-(4-amino-7,7-dimethyl-7H-pyrimido[4,5-b][1,4]oxazin-6-yl)phenyl]cyclohexyl}acetic acid. Some assays were performed with inclusion of didecanoylglycerol in the pre-reaction incubation of test compounds and enzyme. Reactions were initiated after 30 minute pre-reaction incubation via addition of 5 uL of 2.2× substrate. Final reaction conditions consisted of 50 mM HEPES pH 7.5, 2 mM MgCl2, 1 mM CHAPS, 25 uM didecanoylglycerol, 0.5 uM decanoyl-CoA, 0.3 nCi/uL [^14C-]decanoyl-CoA or 0.5 nCi/uL [^3H]-decanoyl-CoA, 0.05-4 ug/mL microsomal protein, and 1% DMSO. Following 60 minute reaction incubation, reactions were stopped with 40 uL of 45% isopropanol and 50 mM sodium carbonate in water and mixed. Extraction of tridecanoylglycerol product was accomplished via addition of 30 uL Microscint-E (Perkin Elmer) and 2 hours of incubation (sealed). Plates were read on a Microbeta Microplate reader Inhibition was normalized to controls containing DMSO or 10 uM {4-[4-(4-amino-7,7-dimethyl-7H-pyrimido[4,5-b][1,4]oxazin-6-yl)phenyl]cyclohexyl}acetic acid. IC50s were fitted using GraphPad Prism to a sigmoidal dose response.

| SMILES | IC50 [nM] |
| --- | --- |
| O=C(O)CC1(CC(F)(F)F)CCc2cc(-c3ccc(Nc4cccc(Cl)c4)nn3)ccc2C1=O (single isomer, unassigned) [Example 21, 2-(6-(6-((3-chlorophenyl)amino)pyridazin-3-yl)-1-oxo-2-(2,2,2-trifluoroethyl)-1,2,3,4-tetrahydronaphthalen-2-yl)acetic acid] | ≤ 100 |
| Cc1cnc(Nc2ccc(-c3ccc4c(c3)CCC(CC(=O)O)(CC(F)(F)F)C4=O)nn2)s1 (single isomer, unassigned) [Example 25, 2-(6-(6-(5-methylthiazol-2-ylamino)pyridazin-3-yl)-1-oxo-2-(2,2,2-trifluoroethyl)-1,2,3,4-tetrahydronaphthalen-2-yl)acetic acid] | 500 to 10000 |
| O=C(O)CC1(CC(F)(F)F)CCc2cc(-c3cnc(Nc4cccc(Cl)c4)s3)ccc2C1=O (single isomer, unassigned) [Example 26, 2-(6-(2-(3-Chlorophenylamino)thiazol-5-yl)-1-oxo-2-(2,2,2-trifluoroethyl)-1,2,3,4-tetrahydronaphthalen-2-yl)acetic acid] | 100 to 500 |
| O=C(O)CC1(CC(F)(F)F)CCc2cc(-c3cnc(Nc4ccc(C(F)(F)F)nc4)s3)ccc2C1=O (single isomer, unassigned) [Example 27, 2-(1-oxo-2-(2,2,2-trifluoroethyl)-6-(2-(6-(trifluoromethyl)pyridin-3-ylamino)thiazol-5-yl)-1,2,3,4-tetrahydronaphthalen-2-yl)acetic acid] | 100 to 500 |
| O=C(O)CC1(CC(F)(F)F)CCc2cc(-c3cnc(Nc4ccc(C(F)(F)F)nc4)s3)ccc2C1=O (single isomer, unassigned) [Example 28, 2-(1-oxo-2-(2,2,2-trifluoroethyl)-6-(2-(6-(trifluoromethyl)pyridin-3-ylamino)thiazol-5-yl)-1,2,3,4-tetrahydronaphthalen-2-yl)acetic acid] | ≤ 100 |

Second part, the compound after the results:

| IC50 [nM] | SMILES |
| --- | --- |
| ≤ 100 | Cc1ccc(Nc2ccc(-c3ccc4c(c3)CCC(CC(=O)O)(CC(F)(F)F)C4=O)nn2)cn1 (single isomer, unassigned) [Example 22, 2-(6-(6-(6-methylpyridin-3-ylamino)pyridazin-3-yl)-1-oxo-2-(2,2,2-trifluoroethyl)-1,2,3,4-tetrahydronaphtha-len-2-yl)acetic acid] |
| ≤ 100 | O=C(O)CC1(CC(F)(F)F)CCc2cc(-c3ccc(Nc4ccc(C(F)(F)F)nc4)nn3)ccc2C1=O (single isomer, unassigned) [Example 23, 2-(1-oxo-2-(2,2,2-trifluoroethyl)-6-(6-(6-(trifluoromethyl)pyridin-3-ylamino)pyridazin-3-yl)-1,2,3,4-tetrahydronaphthalen-2-yl)acetic acid] |
| 500 to 10000 | O=C(O)CC1(CC(F)(F)F)CCc2cc(-c3ccc(Nc4ccc(C(F)(F)F)nc4)nn3)ccc2C1=O (single isomer, unassigned) [Example 24, 2-(1-oxo-2-(2,2,2-trifluoroethyl)-6-(6-(6-(trifluoromethyl)pyridin-3-ylamino)pyridazin-3-yl)-1,2,3,4-tetrahydronaphthalen-2-yl)acetic acid] |
